According to US9133207B2, “Tetrandrine derivatives with substituted 5-carbon, preparation method and use thereof” (Hangzhou Bensheng Pharmaceutical Co., Ltd., priority 2011, dated 2015):
Converted amounts (≈) assume the structure as drawn.

Key:
[1] = tested on: human non-small cell lung cancer cell line A549 transplanted tumor; assay: Experiment 8-2: transplanted tumor of human lung cancer in nude mice; assay type: in vivo, BALB/c nude mice; conditions: 50 mg/kg intragastric, 3 times a day, 10 days, Day 29, M±SD
Excerpt: (§1) Cell lines: human non-small cell lung cancer cell line A549, from China Center for Type Culture Collection (CCTCC);
(§2) The administrations are successive for 10 days.

[2] = Experiment 8-2: body weight of nude mice, preliminary toxicity; conditions: M±SD
Method: Animal: BALB/c nude mice, 8 weeks, female, purchased from Shanghai Laboratory Animal Center of Chinese Academy of Sciences, China.
The mice are administered from the third day after the inoculation. Each mouse is intragastrically administered in 0.4 ml each time and 3 times a day, at 8:00, 14:00 and 20:00, with 6-hour intervals. The administrations are successive for 10 days. The day before administration is deemed as Day 0 and the body weight and tumor size are determined every 5 days to produce a dynamic plot on body weight and tumor growth. On Day 29, the mice are dissected and the tumors are taken out and weighted. The tumor inhibition rate (%) is calculated after the effect of the medicament based on the tumor inhibition rate of the control group being zero.
The values determined are presented as mean±standard error (M±SD).

MG63 (osteosarcoma) = assay: Solid tumor cell growth inhibition, MTT, 72 h (Example 7); assay type: cell-based, human; conditions: Homo sapiens; 72 h, MTT, MG-63
Procedure, shortened: (§3)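 Viability (%) relative to compound-free controls (100%) comes from MTT measurement following 72 h drug exposure at 37 °C, 5% CO2. Seeding density: 4000 cells/well, 24 h before dosing.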

PC-3 (prostate cancer) = assay: as above; assay type: cell-based, human; conditions: Homo sapiens; 72 h, MTT, PC-3
Procedure, shortened: as §3

[3] = tested on: CaES-17 (esophageal cancer cell); assay: as above; assay type: cell-based, human; conditions: Homo sapiens, CaEs17; 72 h, MTT, CAES-17
Procedure, shortened: as §3

[4] = tested on: Hep-2 (laryngeal carcinoma); assay: as above; assay type: cell-based, human; conditions: Homo sapiens; 72 h, MTT, Hep 2
Procedure, shortened: as §3

[5] = tested on: PANC-1 (pancreatic cancer); assay: as above; assay type: cell-based, human; conditions: Homo sapiens; 72 h, MTT, PANC-1
Procedure, shortened: as §3

[6] = tested on: human non-small cell lung cancer cell line A549 transplanted tumor; assay: Experiment 8-1: transplanted tumor of human lung cancer in nude mice; assay type: in vivo, BALB/c nude mice
Method: as §1
(§4) BS-TE-403 and BS-TE-333 (the present invention), and tetrandrine TTD from Jiangxi Jinfurong Pharmaceutical Co., Ltd. All compounds are administered at the dosage of 50 mg/kg weight each time.
Under sterile conditions, the above tumor cells in the logarithmic growth phase are collected and injected by subcutaneous injection in an amount of 5×10^6/0.2 ml/nude mice (cell viability>95%) into the right subaxillary of the nude mice, thus establishing a transplated tumor model of human non-small cell lung cancer in nude mice.
(§5) The experiments are divided into 4 groups: negative control group (solvent group), positive control group (lead compound TTD group), BS-TE-403 group and BS-TE-333 group.
as §2

[7] = Experiment 8-1: body weight of nude mice, preliminary toxicity; assay type: in vivo, BALB/c nude mice
Method: as §4, §5, §2

[8] = tested on: U87 MG (malignant glioma cell); assay: Solid tumor cell growth inhibition, MTT, 72 h (Example 7); assay type: cell-based; conditions: Homo sapiens, U-87 MG
Procedure, shortened: as §3

[9] = tested on: MGC 803 (human gastric cancer cell); assay: as above; assay type: cell-based; conditions: Homo sapiens
Procedure, shortened: as §3

[10] = tested on: Huh7 (human liver cancer cell); assay: as above; assay type: cell-based; conditions: Homo sapiens; 72 h, MTT, Huh-7
Procedure, shortened: as §3

[11] = tested on: SK-OV-3 (ovarian cancer cell); assay: as above; assay type: cell-based; conditions: Homo sapiens
Procedure, shortened: as §3

[12] = tested on: RKO (human colon adenocarcinoma cell); assay: as above; assay type: cell-based; conditions: Homo sapiens; 72 h, MTT, RKO
Procedure, shortened: as §3

[13] = tested on: CNE (nasopharyngeal carcinoma cell); assay: as above; assay type: cell-based; conditions: Homo sapiens
Procedure, shortened: as §3

A549 (human lung cancer) = assay: as above; assay type: cell-based; conditions: Homo sapiens; 72 h, MTT, A549
Procedure, shortened: as §3

[14] = tested on: Hela (human cervical cancer cell); assay: as above; assay type: cell-based; conditions: Homo sapiens; 72 h, MTT, Hela
Procedure, shortened: as §3

[15] = tested on: Becap37 (human breast cancer cell); assay: as above; assay type: cell-based; conditions: Homo sapiens; 72 h, MTT, Becap-37
Procedure, shortened: as §3

[16] = tested on: Kasumi-1 (acute myeloid leukemia M2 type, AML-M2); assay: Leukemia cell growth inhibition, MTT, 72 h (Example 5); assay type: cell-based, human; conditions: Homo sapiens, Kasumi 1
Procedure, shortened: (§6)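 An MTT read-out of viable cell concentration follows 72 h incubation (37° C, 5% CO2) of 6000 cells/well in 10% FBS-supplemented 1640 medium with the 5-substituted derivatives at varying concentrations.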

[17] = tested on: Jurkat (acute lymphoblastic leukemia, ALL); assay: as above; assay type: cell-based, human; conditions: Homo sapiens, Jurkat; 72 h, MTT
Procedure, shortened: as §6

[18] = tested on: K562/adr (drug-resistant, chronic myeloid leukemia, CML); assay: as above; assay type: cell-based, human; conditions: Homo sapiens, K562/Adr; 72 h, MTT
Procedure, shortened: as §6

[19] = tested on: H9 (acute lymphoblastic leukemia, ALL); assay: as above; assay type: cell-based, human; conditions: Homo sapiens; 72 h, MTT
Procedure, shortened: as §6

[20] = tested on: NB4 (acute promyelocytic leukemia, AML); assay: as above; assay type: cell-based, human; conditions: Homo sapiens; 72 h, MTT
Procedure, shortened: as §6

[21] = tested on: RPMI8226 (multiple myeloma); assay: Multiple myeloma cell growth inhibition, MTT, 72 h (Example 6); assay type: cell-based, human; conditions: Homo sapiens, RPMI-8226; 72 h, MTT, RPMI8226
Procedure, shortened: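 Viability was read by MTT after 72 h of compound exposure at 37 °C, 5% CO2. Each well held 6000 RPMI8226 cells in 1640 medium containing 10% fetal bovine serum, with derivatives added at various concentrations.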

[22] = tested on: drug-resistant lung cancer cell GLC-82/ADR; conditions: while adriamycin is used, without tetrandrine; cited from earlier work

COc1cc2ncnc(Nc3ccc(F)c(Cl)c3)c2cc1OCCCN1CCOCC1 [Jef, gefitinib, reference compound]
Mass of tumor [1]: 883 ± 273.32 mg | Weight (g) Final ([2]; 50 mg/kg intragastric, 3 times a day, 10 days, final body weight): 21.8 ± 0.99 g | Weight (g) Initial ([2]; nude mice body weight before administration): 22.1 ± 0.17 g

COc1ccc2cc1Oc1ccc(cc1)C[C@H]1c3cc(c(OC)cc3CCN1C)Oc1c(OC)c(OC)c(CN3CCN(C(C)C)CC3)c3c1[C@H](C2)N(C)CC3 [BS-TE-333]
IC50 (MG63 (osteosarcoma)): 0.7 mg/L (≈ 0.917 µM) | IC90 (MG63 (osteosarcoma)): 1.3 mg/L (≈ 1.7 µM) | IC50 (PC-3 (prostate cancer)): 1.85 mg/L (≈ 2.42 µM) | IC90 (PC-3 (prostate cancer)): 2.9 mg/L (≈ 3.8 µM) | IC50 [3]: 2.35 mg/L (≈ 3.08 µM) | IC90 [3]: 17.1 mg/L (≈ 22.4 µM) | IC50 [4]: 1.72 mg/L (≈ 2.25 µM) | IC90 [4]: 9.69 mg/L (≈ 12.7 µM) | IC50 [5]: 1.69 mg/L (≈ 2.21 µM) | IC90 [5]: 9.93 mg/L (≈ 13 µM) | effect on transplanted tumor of human lung cancer in nude mice (FIG. 2) ([6]; 50 mg/kg): exhibit inhibiting effects | Mass of tumor ([6]; 50 mg/kg intragastric, 3 times a day, 10 days, Day 27, M±SD): 639.25 ± 285.20 mg | Tumor Inhibition rate (%) ([6]; 50 mg/kg intragastric, 3 times a day, 10 days, Day 27, control = zero): 31.15% | toxic or side effect under such a dosage ([7]; 50 mg/kg): has caused some toxic and side effect | weight loss as compared with the weight in the control group (FIG. 1) ([7]; 50 mg/kg): relatively obvious | Weight (g) Final ([7]; 50 mg/kg intragastric, 3 times a day, 10 days, final body weight, M±SD): 16.95 ± 2.30 g | Weight (g) Initial ([7]; nude mice body weight before administration, M±SD): 21.3 ± 0.24 g | IC50 [8]: 0.5 mg/L (≈ 0.655 µM) | IC90 [8]: 1.51 mg/L (≈ 1.98 µM) | IC50 [9]: 0.84 mg/L (≈ 1.1 µM) | IC90 [9]: 5.3 mg/L (≈ 6.95 µM) | IC50 [10]: 1.64 mg/L (≈ 2.15 µM) | IC90 [10]: 2.45 mg/L (≈ 3.21 µM) | IC50 [11]: 3.04 mg/L (≈ 3.98 µM) | IC90 [11]: > 16 mg/L | IC50 [12]: 0.54 mg/L (≈ 0.708 µM) | IC90 [12]: 1.74 mg/L (≈ 2.28 µM) | IC50 [13]: 2.6 mg/L (≈ 3.41 µM) | IC90 [13]: 5.6 mg/L (≈ 7.34 µM) | IC50 (A549 (human lung cancer)): 1.5 mg/L (≈ 1.97 µM) | IC90 (A549 (human lung cancer)): 11 mg/L (≈ 14.4 µM) | IC50 [14]: 1.69 mg/L (≈ 2.21 µM) | IC90 [14]: 5 mg/L (≈ 6.55 µM) | IC50 [15]: 1 mg/L (≈ 1.31 µM) | IC90 [15]: 4.5 mg/L (≈ 5.9 µM) | IC50 [16]: 0.77 mg/L (≈ 1.01 µM) | IC90 [16]: 3.29 mg/L (≈ 4.31 µM) | IC50 [17]: 0.81 mg/L (≈ 1.06 µM) | IC90 [17]: 4.18 mg/L (≈ 5.48 µM) | IC50 [18]: 0.43 mg/L (≈ 0.564 µM) | IC90 [18]: 1.91 mg/L (≈ 2.5 µM) | IC50 [19]: 1.14 mg/L (≈ 1.49 µM) | IC90 [19]: 1.84 mg/L (≈ 2.41 µM) | IC50 [20]: 0.48 mg/L (≈ 0.629 µM) | IC90 [20]: 1 mg/L (≈ 1.31 µM) | IC50 [21]: 0.06 mg/L (≈ 0.0786 µM) | IC90 [21]: 2.34 mg/L (≈ 3.07 µM)

COc1cccc2c1C(=O)c1c(O)c3c(c(O)c1C2=O)C[C@@](O)(C(=O)CO)C[C@@H]3O[C@H]1C[C@H](N)[C@H](O)[C@H](C)O1 [adriamycin]
drug-resistance index [22]: 5.43
